Patent publication US6951647B2, “T cell binding ligand peptides and method of inducing a cellular immune response” (Cel-Sci Corporation, priority 2001, dated 2005)
“And” between values parts separate entries of the source, which are not always exact repeats. Identical values can stand only once.

Legend:
modified HGP-30 [1] = test: ELISA antibody screening of sera of immunized mice on modified HGP-30; assay type: in vivo; settings: for ELISA test antigen Modified HGP-30: day 42 test bleeding
Procedure: Mice in groups (5-10 animals per group as designated) are immunized with the LEAPS constructs (25 μg/dose) of SEQ ID NO's:37, 38 and 39, in 0.2 mL emulsified 1:1 with adjuvant (Seppic's ISA-51 or Corixa's microfluidized MPL S/E) on days 0 and 14. Mice are evaluated by Delayed Type of Hypersensitivity (DTH) by inoculation on day 26 with 20 μl of a solution of saline or mH (SEQ ID NO:6) (25 μg in saline) in the left or right ear respectively. The DTH response is determined by measurement of the ear thickness 48 hours later and expressed as increase in ear thickness (mm) of experimental ear compared to that of the control ear. Individual animal sera are collected for measurement of antibody on day 28, 42, 63 and 77. Sera from individual animals and group pools are evaluated for specific anti-mH antibody, for total antibody, IgG1, IgG2a and IgG3 antibody isotype and cross clade titer at selected time points as indicated. […]

B Clade = test: ELISA cross clade recognition by sera of immunized mice, B Clade; assay type: in vivo; settings: for ELISA test antigen B Clade: day 42 test bleeding
Procedure: (§1) Mice in groups (5-10 animals per group as designated) are immunized with the LEAPS constructs (25 μg/dose) of SEQ ID NO's:37, 38 and 39, in 0.2 mL emulsified 1:1 with adjuvant (Seppic's ISA-51 or Corixa's microfluidized MPL S/E) on days 0 and 14. Mice are evaluated by Delayed Type of Hypersensitivity (DTH) by inoculation on day 26 with 20 μl of a solution of saline or mH (SEQ ID NO:6) (25 μg in saline) in the left or right ear respectively. The DTH response is determined by measurement of the ear thickness 48 hours later and expressed as increase in ear thickness (mm) of experimental ear compared to that of the control ear. Individual animal sera are collected for measurement of antibody on day 28, 42, 63 and 77. Sera from individual animals and group pools are evaluated for specific anti-mH antibody, for total antibody, IgG1, IgG2a and IgG3 antibody isotype and cross clade titer at selected time points as indicated.
(§2) The mouse sera for the ELISA was used at a dilution of 1:200. Again, clearly, the construct provides higher signals indicative of higher levels of the antibodies that recognized other clades besides the parental one (Clade B) of mH.
(§3) A cross clade analysis for pools of day 42 test bleedings from the same groups as used in Table 3, were obtained and the results are shown in Table 4.

E Clade = test: ELISA cross clade recognition by sera of immunized mice, E Clade; assay type: in vivo; settings: for ELISA test antigen E Clade: day 42 test bleeding, Group Average
Procedure: as §1, §2, §3

modified HGP-30 [2] = test: Delayed Type Hypersensitivity (DTH) ear thickness response with antisera depletion of CD4 or CD8 cells; assay type: in vivo, Mice
Procedure: as §1
Select immunoglobulin preparations were obtained from Dr. Stephen Hoffmann, Malaria Program, U.S. Navy. […] This allows one to determine some parts of the nature of various cellular (e.g., T-cell) involvement in the early stage of immune system response with the LEAPS peptide-constructs. It is recognized, however, that this is only a temporary event since new cells are continuously being developed from stem cells and the animals become resistant to the reagents.
The animals are pretreated with the antisera as indicated for 5 days before the initial immunization with peptide-construct having SEQ ID NO:37 or SEQ ID NO:39 on […]. No pretreatment is done before the booster immunization on day 14 or DTH on day 26-28. The mice are then inoculated with the test antigen or saline (control) on day 26 in the left and right ears, respectively, and the DTH response is measured on day 28. The difference between the values for the test and saline control ears is calculated for each group of five animals along with the standard error of the mean (sem) and the results are plotted (see FIG. 1). Also shown in FIG. 1 are values for the untreated animals and animals immunized on day 14 only.
The DTH (Delayed Type Hypersensitivity) data is statistically significant with a t-test of 0.05 for SEQ ID NO:39 and anti-CD8. The DTH for pretreatment of SEQ ID NO:37 immunized mice with anti-CD4 was just above the cutoff limit for statistical significance due to a weaker DTH response and small group size.

Peptide G = test: Specificity analysis for the TCBL carrier, ELISA plates coated with Peptide G; assay type: in vivo, Mice; settings: individual animal
[3] = day 63 test bleeding, sera 1:200, individual mouse
[4] = Day 14 Injection Only (immunized with construct on day 14 only), average of group of 5 mice
[5] = Treatment Anti CD4, daily for 5 days before immunization, average of group (5 mice)
[6] = Treatment Anti CD8, daily for 5 days before immunization, average of group of 5 mice
[7] = Treatment None, average of group (5 mice), ISA 51 adjuvant
[8] = Treatment Normal rat IgG, daily for 5 days before immunization, average of group (5 mice)

With “DGQ EEK AGV VST GLI GGG ATL YSV HQR IDV KDT KEA LEK IEE EQN KS (DGQEEKAGVVSTGLIGGGYLSGANLNL) [SEQ ID NO: 57, Peptide G′ linked by GGG spacer to modified HGP-30 (mH)]” as the substance, how does the “A 490 1:200 dilution on plates coated with modified HGP-30” value (modified HGP-30 [1]; day 42, first set of groups (animals 4637-4648, 4674-4678), individual animal) read?
The value was 2.178 A 490 and 1.411 A 490 and 2.314 A 490 and 2.555 A 490 and 2.404 A 490 and 2.273 A 490.

And the “A 490 1:200 dilution on plates coated with modified HGP-30” value (modified HGP-30 [1]; day 42, first set of groups, Average)?
Its value is 2.189 A 490.

And the “A 490 1:200 dilution on plates coated with modified HGP-30” value (modified HGP-30 [1]; day 42, second set of groups (animals 4662-4673, 4679-4683), individual animal)?
The value was 1.968 A 490 and 1.422 A 490 and 1.755 A 490 and 2.450 A 490 and 2.403 A 490 and 1.399 A 490.

What about the “A 490 1:200 dilution on plates coated with modified HGP-30” value (modified HGP-30 [1]; day 42, second set of groups, Average) of the same substance?
Its value is 1.899 A 490.

What about the “ELISA test antigen Modified HGP-30” value (modified HGP-30 [1]; group (A), Group Average) of the same substance?
Its value is 2.433.

What about the “ELISA test antigen Modified HGP-30” value (modified HGP-30 [1]; group (A), individual mouse) of the same substance?
Its value is 2.307 and 1.589 and 2.432 and 2.867 and 2.627 and 2.780.

What about the “ELISA test antigen Modified HGP-30” value (modified HGP-30 [1]; group (B), Group Average) of the same substance?
Its value is 2.672.

What about the “ELISA test antigen Modified HGP-30” value (modified HGP-30 [1]; group (B), individual mouse) of the same substance?
Its value is 2.330 and 2.213 and 2.534 and 3.358 and 3.030 and 2.571.

What about the “ELISA signal on modified HGP-30” value (modified HGP-30 [1]; [3]) of the same substance?
Its value is 2.737 and 2.471 and 2.569 and 2.093 and 2.512 and 3.115 and 3.153 and 2.922 and 2.236 and 2.534.

And the “ELISA test antigen B Clade” value (B Clade; group (A), Group Average)?
Its value is 0.346.

What about the “ELISA test antigen B Clade” value (B Clade; group (A), individual mouse) of the same substance?
Its value is 0.271 and 0.000 and 0.036 and 0.507 and 0.187 and 1.074.

And the “ELISA test antigen B Clade” value (B Clade; group (B), Group Average)?
The value was 1.410.

What about the “ELISA test antigen B Clade” value (B Clade; group (B), individual mouse) of the same substance?
The value was 2.348 and 0.496 and 1.799 and 1.228 and 2.244 and 0.349.

What about the “ELISA signal on B Clade” value (B Clade; [3]) of the same substance?
Its value is 1.667 and 0.160 and 0.099 and 0.236 and 1.547 and 0.470 and 1.138 and 0.994 and 0.000 and 0.505.

What about the “ELISA test antigen E Clade” value (E Clade; group (A)) of the same substance?
The value was 0.035.

What about the “ELISA test antigen E Clade” value (E Clade; group (B)) of the same substance?
Its value is 0.094.

And the “ELISA signal on E Clade” value (E Clade; [3])?
Its value is 0.933 and 0.030 and 0.113 and 0.041 and 0.000 (2×) and 0.029 and 0.068 and 0.006 and 0.271.

And the “Left Ear thickness, inoculated day 26 with HGP-30, measured after 48 hours” value (shortened to “Left Ear thickness”) (modified HGP-30 [2]; [4])?
Its value is 0.234 mm.

What about the “Right Ear thickness, inoculated day 26 with saline, measured after 48 hours” value (from here on “Right Ear thickness”) (modified HGP-30 [2]; [4]) of the same substance?
Its value is 0.222 mm.

And the “DTH % increase (L-R)/R” value (modified HGP-30 [2]; Day 14 Injection Only, average of group of 5 mice)?
The value was 5.10%.

And the “Left Ear thickness” value (modified HGP-30 [2]; [5])?
Its value is 0.252 mm.

What about the “Right Ear thickness” value (modified HGP-30 [2]; [5]) of the same substance?
The value was 0.237 mm.

What about the “DTH % increase (L-R)/R” value (modified HGP-30 [2]; Treatment Anti CD4, average of group (5 mice)) of the same substance?
The value was 6.10%.

And the “Left Ear thickness” value (modified HGP-30 [2]; [6])?
The value was 0.290 mm.

And the “Right Ear thickness” value (modified HGP-30 [2]; [6])?
Its value is 0.232 mm.

And the “DTH % increase (L-R)/R” value (modified HGP-30 [2]; Treatment Anti CD8, average of group of 5 mice)?
Its value is 25.00%.

What about the “DTH % increase (L-R)/R” value (modified HGP-30 [2]; Treatment None, average of group (5 mice)) of the same substance?
The value was 22.10%.

And the “Left Ear thickness” value (modified HGP-30 [2]; [7])?
The value was 0.274 mm.

And the “Right Ear thickness” value (modified HGP-30 [2]; [7])?
The value was 0.224 mm.

What about the “Left Ear thickness” value (modified HGP-30 [2]; [8]) of the same substance?
Its value is 0.278 mm.

What about the “Right Ear thickness” value (modified HGP-30 [2]; [8]) of the same substance?
The value was 0.232 mm.

And the “DTH % increase (L-R)/R” value (modified HGP-30 [2]; Treatment Normal rat IgG, average of group (5 mice))?
Its value is 19.90%.

What about the “Type of cells required for a DTH response” value (modified HGP-30 [2]; cell specific antisera as depletion reagent for the primary immunization (FIG. 1)) of the same substance?
Its value is “requires the presence and presumably activation of CD4+ but not CD8+ cells”.

And the “A 490 1:200 dilution on plates coated with Peptide G” value (Peptide G; day 42, first set of groups (animals 4637-4648, 4674-4678))?
Its value is 0.083 A 490 and 0.054 A 490 and 0.097 A 490 and 0.038 A 490 and 0.087 A 490 and 0.121 A 490.

And the “A 490 1:200 dilution on plates coated with Peptide G” value (Peptide G; day 42, second set of groups (animals 4662-4673, 4679-4683))?
Its value is 0.091 A 490 and 0.024 A 490 and 0.006 A 490 and 0.015 A 490 and 0.126 A 490 and 0.113 A 490.
